Some test systems named below: A549 NSCLC; HCC-2998 colon; SK-MEL-2 melanoma; HCT-15 colon; SN12C renal; LOX IMVI melanoma; HL-60(TB) leukemia; A498 renal; COLO 205 colon; EKVX NSCLC; OVCAR-3 ovarian; NCI/ADR-RES ovarian; HT29 colon; HS 578T breast; UO-31 renal; OVCAR-4 ovarian; HCT-116 colon; K-562 leukemia; CAKI-1 renal.
Assay in all cases: inhibition of tumour cell growth, NCI panel, 48 h

SMILES strings stand for the structures.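 Briefly, cells in 96-well plates were exposed to five compound concentrations for 48 h, and endpoints were estimated by linear interpolation. TGI marks complete inhibition of growth.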

Consider `CCOC(=O)C1(C(N)=O)C(=O)c2ccncc2C1=O` (stereo not drawn), for which the TGI in the test on A549 NSCLC, in the test with HCC-2998 colon, with SK-MEL-2 melanoma, in the test with HCT-15 colon, in the test on SN12C renal and in the test on LOX IMVI melanoma was more than 100 µM each time. Besides, the TGI in the test with HL-60(TB) leukemia, in the test with A498 renal, in the test with COLO 205 colon, in the test with EKVX NSCLC, with OVCAR-3 ovarian and with NCI/ADR-RES ovarian was more than 100 µM throughout. In addition, the TGI with HT29 colon, with HS 578T breast, in the test on UO-31 renal, with OVCAR-4 ovarian, in the test on HCT-116 colon and in the test with K-562 leukemia was more than 100 µM throughout. For the same compound, the TGI with CAKI-1 renal was more than 100 µM.
On to `O=C(CN1CCN(Cc2ccccc2)CC1)c1ccc2[nH]c(=O)oc2c1`, for which the TGI in the test on A549 NSCLC, in the test with HCC-2998 colon, in the test with SK-MEL-2 melanoma, with HCT-15 colon, in the test on SN12C renal and with LOX IMVI melanoma was more than 100 µM throughout. In addition, the TGI in the test on HL-60(TB) leukemia, with A498 renal, in the test with COLO 205 colon, in the test with EKVX NSCLC, in the test on OVCAR-3 ovarian and in the test on NCI/ADR-RES ovarian was more than 100 µM each time. The TGI with HT29 colon, in the test on HS 578T breast, in the test on UO-31 renal, with OVCAR-4 ovarian, in the test on HCT-116 colon and in the test with K-562 leukemia was more than 100 µM each time. The compound also had a TGI in the test on CAKI-1 renal of more than 100 µM.
Take `NC(Cc1ccc(S(=O)(=O)O)cc1)C(=O)NC(CCCCNC(=O)NCCCCC(NC(=O)C(N)Cc1ccc(S(=O)(=O)O)cc1)C(=O)NC(Cc1ccc(S(=O)(=O)O)cc1)C(=O)O)C(=O)NC(Cc1ccc(S(=O)(=O)O)cc1)C(=O)O` (stereo not drawn): the TGI in the test on A549 NSCLC, in the test with HCC-2998 colon, with SK-MEL-2 melanoma, in the test on HCT-15 colon, in the test with SN12C renal and in the test with LOX IMVI melanoma was more than 100 µM each time. Besides, the TGI in the test on HL-60(TB) leukemia, in the test with A498 renal, with COLO 205 colon, in the test with EKVX NSCLC, with OVCAR-3 ovarian and in the test on NCI/ADR-RES ovarian was more than 100 µM each time. Besides, the TGI with HT29 colon, in the test with HS 578T breast, in the test on UO-31 renal, in the test with OVCAR-4 ovarian, in the test with HCT-116 colon and with K-562 leukemia was more than 100 µM throughout. For the same compound, in the test with CAKI-1 renal, the TGI was more than 100 µM.
Consider `COc1ccc(/C=C2\CCCC(CN(C)C)C2=O)cc1` (stereo not drawn), for which the TGI worked out at 33.9 µM with A549 NSCLC; 16.6 µM with HCC-2998 colon; 11 µM in the test with SK-MEL-2 melanoma; 1.7 µM with HCT-15 colon; 7.12 µM with SN12C renal; 4 µM with LOX IMVI melanoma. Besides, the TGI in the test on HL-60(TB) leukemia is 4.62 µM; in the test on A498 renal, 30.4 µM; in the test on COLO 205 colon it was 4.45 µM; in the test on EKVX NSCLC it was 24.8 µM; in the test with OVCAR-3 ovarian, 4.99 µM; in the test with NCI/ADR-RES ovarian it was 6.56 µM. For the same compound, the TGI was 3.47 µM in the test with HT29 colon; 10.9 µM in the test on HS 578T breast; 8.57 µM with UO-31 renal; 4.43 µM in the test with OVCAR-4 ovarian; 3.19 µM with HCT-116 colon; 6.79 µM in the test on K-562 leukemia. In the test on CAKI-1 renal, the TGI was 3.15 µM.
With `Cc1c2c(c(C)n1-c1ccccc1)C(=O)N(CCCCN1CCN(c3ccccc3)CC1)C2=O`, the TGI is more than 100 µM in the test with A549 NSCLC; 27.1 µM in the test with HCC-2998 colon; 62.6 µM in the test on SK-MEL-2 melanoma; 54.8 µM with HCT-15 colon; 43.9 µM in the test on SN12C renal; 23.5 µM with LOX IMVI melanoma. Moreover, the TGI with HL-60(TB) leukemia was 17.2 µM; in the test on A498 renal it was 69 µM; with COLO 205 colon, 21.7 µM; with EKVX NSCLC, 65.7 µM; with OVCAR-3 ovarian, 88.5 µM; in the test on NCI/ADR-RES ovarian, 83.9 µM. Moreover, the TGI with HT29 colon was 10.1 µM; with HS 578T breast, more than 100 µM; with UO-31 renal it was 24.8 µM; in the test on OVCAR-4 ovarian it was 82.5 µM; in the test on HCT-116 colon, 20.9 µM; with K-562 leukemia, 37.6 µM. The TGI with CAKI-1 renal is more than 100 µM.
For `N#Cc1c(N2CCCC2)nsc1NCc1ccccc1`, the TGI with A549 NSCLC, in the test on HCC-2998 colon, in the test on SK-MEL-2 melanoma, in the test with HCT-15 colon, with SN12C renal and in the test on LOX IMVI melanoma was more than 100 µM in each case. In addition, the TGI in the test with HL-60(TB) leukemia, in the test on A498 renal, in the test with COLO 205 colon, with EKVX NSCLC, in the test on OVCAR-3 ovarian and with NCI/ADR-RES ovarian was more than 100 µM each time. In addition, the TGI in the test with HT29 colon was more than 100 µM; in the test on HS 578T breast it was more than 100 µM; in the test on UO-31 renal it was 65 µM; in the test with OVCAR-4 ovarian it was more than 100 µM; in the test with HCT-116 colon, more than 100 µM; with K-562 leukemia it was more than 100 µM. Besides, the TGI in the test on CAKI-1 renal is more than 100 µM.
Consider `O=C(/C=C1\N=C(c2ccccc2)N(c2nc3ccc(Sc4ccccc4)cc3[nH]2)C1=O)/C=C/c1ccccc1`, for which the TGI is more than 100 µM in the test on A549 NSCLC; 32.5 µM in the test on HCC-2998 colon; 41.5 µM in the test with SK-MEL-2 melanoma; more than 100 µM in the test on HCT-15 colon; more than 100 µM in the test with SN12C renal; more than 100 µM in the test on LOX IMVI melanoma. The TGI was 54.1 µM in the test with HL-60(TB) leukemia; more than 100 µM in the test on A498 renal; 30.6 µM in the test on COLO 205 colon; more than 100 µM with EKVX NSCLC; more than 100 µM in the test on OVCAR-3 ovarian; 67.9 µM in the test on NCI/ADR-RES ovarian. The TGI was 92.8 µM in the test on HT29 colon; more than 100 µM in the test with HS 578T breast; more than 100 µM in the test on UO-31 renal; more than 100 µM with OVCAR-4 ovarian; more than 100 µM with HCT-116 colon; more than 100 µM with K-562 leukemia. In the test on CAKI-1 renal, the TGI was more than 100 µM.

The values are drawn from PubChem BioAssay (NCI).
